These results are taken from paper PMC8779173, “Discovery of Cofactor Competitive Inhibitors against the Human Methyltransferase Fibrillarin” (Pharmaceuticals, 2021).

Usually Kd stands for the equilibrium constant for the complex coming apart.

Experiment [1] addresses T1, human fibrillarin (hFBL) (Homo sapiens, UniProt P22087).
T1 construct: gene FBL; methyltransferase domain (residues 83–321)
T1 sequence (P22087 83-321): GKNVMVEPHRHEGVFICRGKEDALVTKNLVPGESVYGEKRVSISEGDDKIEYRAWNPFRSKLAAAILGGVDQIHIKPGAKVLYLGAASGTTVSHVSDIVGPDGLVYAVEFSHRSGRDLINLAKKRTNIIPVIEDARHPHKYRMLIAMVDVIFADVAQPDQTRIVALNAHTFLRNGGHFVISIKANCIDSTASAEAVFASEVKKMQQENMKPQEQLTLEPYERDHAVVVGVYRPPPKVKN
In words: crystal structure (soak; no density beyond the amide linker); STD NMR competition with SAM; SPR. It is filed as binding.

Experiment [2] has as its target T1, human fibrillarin (hFBL). In words: biochemical. On the set-up: SPR binding affinity of compounds to human fibrillarin methyltransferase domain. The note with it: SPR. The source says: In addition, electron density for 1a was not observed beyond the amide linker, which appeared to be turning away from the catalytic site and pointing towards the bulk solvent. […] Indeed, the binding affinity of 1a turned out to be similar to that of 1 (Supplemental Table S3). […] Additionally, the extended piperidine ring in 2a was engaged in multiple hydrophobic interactions with residues G167, D236, and V237 with a stable chair conformation.

Experiment [3] addresses T1, human fibrillarin (hFBL). In words: STD NMR competition with SAM. It counts as binding.
The target in experiment [4] is T1, human fibrillarin (hFBL). In words: crystal structure (soak); STD NMR competition with SAM; SPR. It counts as binding.
Experiment [5] addresses T1, human fibrillarin (hFBL). In words: ITC; also SPR (Kd […]), STD NMR and crystal structure. It is filed as binding.

For the compound `N[C@H](Cc1cccc(NC(=O)Cc2cn3nc(C(F)(F)F)cc3c(=O)[nH]2)c1)C(=O)O` [1a, (R)-2-Amino-3-(3-(2-(4-oxo-2-(trifluoromethyl)-4,5-dihydropyrazolo[1,5-a]pyrazin-6-yl)acetamido)phenyl)propanoic acid], the “crystal structure (soak; no density beyond the amide linker); STD NMR competitio” value on human fibrillarin (hFBL) [1] was “complex structures were obtained for 1a (PDB code: 7SEC) and 2a (PDB code: 7SED)”. Besides, the equilibrium dissociation constant (Kd) at human fibrillarin (hFBL) [2] worked out at 510 ± 50 µM.
At human fibrillarin (hFBL) [2], `N[C@@H](Cc1cccc(NC(=O)Cc2cn3nc(C(F)(F)F)cc3c(=O)[nH]2)c1)C(=O)O` [1c, (S)-2-Amino-3-(3-(2-(4-oxo-2-(trifluoromethyl)-4,5-dihydropyrazolo[1,5-a]pyrazin-6-yl)acetamido)phenyl)propanoic acid] had a Kd of 2660 ± 40 µM. Besides, the “STD NMR competition with SAM” value at human fibrillarin (hFBL) [3] is “without the amino acid 1e were also shown to compete with SAM binding to hFBL in solution by STD NMR”.
At human fibrillarin (hFBL) [2], `N[C@@H](CCCNC(=O)Cc1cn2nc(C(F)(F)F)cc2c(=O)[nH]1)C(=O)O` [1d, (S)-2-Amino-5-(2-(4-oxo-2-(trifluoromethyl)-4,5-dihydropyrazolo[1,5-a]pyrazin-6-yl)acetamido)pentanoic acid] yielded a Kd of 3350 ± 480 µM. The “STD NMR competition with SAM” value on human fibrillarin (hFBL) [3] is “In addition to 1a, 1c, 1d, and a synthetic intermediate without the amino acid 1e were also shown to compete”.
Regarding `O=C(O)Cc1cn2nc(C(F)(F)F)cc2c(=O)[nH]1` [1e, 2-(4-Oxo-2-(trifluoromethyl)-4,5-dihydropyrazolo[1,5-a]pyrazin-6-yl)acetic acid], the “STD NMR competition with SAM” value at human fibrillarin (hFBL) [3] was “a synthetic intermediate without the amino acid 1e were also shown to compete with SAM binding to hFBL”.
On human fibrillarin (hFBL) [2], `FC(F)(F)c1cc(NC2CCNCC2)ncn1` [2a] yielded a Kd of 43.8 ± 2.2 µM. Moreover, at human fibrillarin (hFBL) [4], the “crystal structure (soak); STD NMR competition with SAM; SPR” value is “complex structures were obtained for 1a (PDB code: 7SEC) and 2a (PDB code: 7SED)”.
In the case of `FC(F)(F)c1cc(NC2CCOCC2)ncn1` [2b], the affinity at human fibrillarin (hFBL) [2], expressed as Kd, was 250 ± 20 µM. The “STD NMR competition with SAM” value on human fibrillarin (hFBL) [3] is “both 2a and 2b were shown to compete with cofactor binding by STD NMR assays”.
In the case of `C[S@@+](CC[C@H](N)C(=O)[O-])C[C@H]1O[C@@H](n2cnc3c(N)ncnc32)[C@H](O)[C@@H]1O` [SAM], the results for the dissociation constant Kd at human fibrillarin (hFBL) [5] and at human fibrillarin (hFBL) [2] were 14 ± 0.8 µM and 33.7 ± 7.7 µM, respectively.
For the compound `Cc1cn2cc(C(F)(F)F)cc2c(=O)[nH]1` [compound 1, PS-6655], at human fibrillarin (hFBL) [2], the affinity, expressed as Kd, was 520 ± 40 µM.
Still for that read-out and setting: then `Nc1cc(C(F)(F)F)ncn1` [compound 2, FS-2818], with 2700 ± 780 µM.
